Measurements published in patent US9562031B1, “Phenethyldihydrobenzodioxolones and methods of use” (Sequoia Sciences, Inc., priority 2015, dated 2017).

How the values were obtained:
Format in all cases: cell-based, human
Conditions in all cases: NCI 60-cell panel
[1] = tested on: MCF-7 cells; assay: NCI-60 panel antiproliferation, MCF-7
Method: (§1) Bifidenone and Compound 37 were tested for antiproliferation activity against the NCI-60 panel of cancer cell lines. COMPARE analysis was then conducted to compare the activity “fingerprint” of bifidenone to those of known classes of compounds (Zhou, B.-N., Hoch, J. M., Johnson, R. K., Mattern, M. R., Eng, W.-K., Ma, J., Hecht, S. M., Newman, D. J., Kingston, D. G. I., 2000. Use of COMPARE Analysis to Discover New Natural Product Drugs: Isolation of Camptothecin and 9-Methoxycamptothecin from a New Source. Journal of Natural Products 63, 1273-1276.).

[2] = tested on: IGR-OV1 cells; assay: NCI-60 panel antiproliferation, IGR-OV1
Method: as §1

[3] = tested on: RPMI-8226 cells; assay: NCI-60 panel antiproliferation, RPMI-8226
Method: as §1

[4] = tested on: HCC-2998 cells; assay: NCI-60 panel antiproliferation, HCC-2998
Method: as §1

[5] = tested on: Hs578T cells; assay: NCI-60 panel antiproliferation, Hs578T
Method: as §1

[6] = tested on: NCI-H23 cells; assay: NCI-60 panel antiproliferation, NCI-H23
Method: as §1

[7] = tested on: ACHN cells; assay: NCI-60 panel antiproliferation, ACHN
Method: as §1

[8] = tested on: HOP-62 cells; assay: NCI-60 panel antiproliferation, HOP-62
Method: as §1

[9] = tested on: UACC-62 cells; assay: NCI-60 panel antiproliferation, UACC-62
Method: as §1

[10] = tested on: NCI-H522 cells; assay: NCI-60 panel antiproliferation, NCI-H522
Method: as §1

[11] = tested on: LOX IMVI cells; assay: NCI-60 panel antiproliferation, LOX IMVI
Method: as §1

[12] = tested on: M14 cells; assay: NCI-60 panel antiproliferation, M14
Method: as §1

[13] = tested on: Caki-1 cells; assay: NCI-60 panel antiproliferation, Caki-1
Method: as §1

[14] = tested on: SK-OV-3 cells; assay: NCI-60 panel antiproliferation, SK-OV-3
Method: as §1

[15] = tested on: MDA-MB-231 cells; assay: NCI-60 panel antiproliferation, MDA-MB-231
Method: as §1

[16] = tested on: UO-31 cells; assay: NCI-60 panel antiproliferation, UO-31
Method: as §1

[17] = tested on: OVCAR-4 cells; assay: NCI-60 panel antiproliferation, OVCAR-4
Method: as §1

[18] = tested on: MALME-3M cells; assay: NCI-60 panel antiproliferation, MALME-3M
Method: as §1

[19] = tested on: MOLT-4 cells; assay: NCI-60 panel antiproliferation, MOLT-4
Method: as §1

[20] = tested on: T-47D cells; assay: NCI-60 panel antiproliferation, T-47D
Method: as §1

[21] = tested on: HCT-116 cells; assay: NCI-60 panel antiproliferation, HCT-116
Method: as §1

[22] = tested on: BT-549 cells; assay: NCI-60 panel antiproliferation, BT-549
Method: as §1

[23] = tested on: RXF-393 cells; assay: NCI-60 panel antiproliferation, RXF-393
Method: as §1

[24] = tested on: HL-60 cells; assay: NCI-60 panel antiproliferation, HL-60
Method: as §1

[25] = tested on: COLO205 cells; assay: NCI-60 panel antiproliferation, COLO205
Method: as §1

[26] = tested on: SF-295 cells; assay: NCI-60 panel antiproliferation, SF-295
Method: as §1

[27] = tested on: DU-145 cells; assay: NCI-60 panel antiproliferation, DU-145
Method: as §1

[28] = tested on: NCI-H322M cells; assay: NCI-60 panel antiproliferation, NCI-H322M
Method: as §1

[29] = tested on: SF-539 cells; assay: NCI-60 panel antiproliferation, SF-539
Method: as §1

[30] = tested on: KM12 cells; assay: NCI-60 panel antiproliferation, KM12
Method: as §1

[31] = tested on: SK-MEL-28 cells; assay: NCI-60 panel antiproliferation, SK-MEL-28
Method: as §1

[32] = tested on: SK-Mel-5 cells; assay: NCI-60 panel antiproliferation, SK-MEL-5
Method: as §1

[33] = tested on: 786-0 cells; assay: NCI-60 panel antiproliferation, 786-0
Method: as §1

[34] = tested on: SNB-19 cells; assay: NCI-60 panel antiproliferation, SNB-19
Method: as §1

[35] = tested on: CCRF-CEM cells; assay: NCI-60 panel antiproliferation, CCRF-CEM
Method: as §1

[36] = tested on: SF-268 cells; assay: NCI-60 panel antiproliferation, SF-268
Method: as §1

[37] = tested on: NCI-H226 cells; assay: NCI-60 panel antiproliferation, NCI-H226
Method: as §1

[38] = tested on: UACC-257 cells; assay: NCI-60 panel antiproliferation, UACC-257
Method: as §1

[39] = tested on: SW-620 cells; assay: NCI-60 panel antiproliferation, SW-620
Method: as §1

[40] = tested on: K-562 cells; assay: NCI-60 panel antiproliferation, K-562
Method: as §1

[41] = tested on: MDA-MB-435 cells; assay: NCI-60 panel antiproliferation, MDA-MB-435
Method: as §1

[42] = tested on: U251 cells; assay: NCI-60 panel antiproliferation, U251
Method: as §1

[43] = tested on: HCT-15 cells; assay: NCI-60 panel antiproliferation, HCT-15
Method: as §1

[44] = tested on: SNB-75 cells; assay: NCI-60 panel antiproliferation, SNB-75
Method: as §1

[45] = tested on: HOP-92 cells; assay: NCI-60 panel antiproliferation, HOP-92
Method: as §1

[46] = tested on: SN12C cells; assay: NCI-60 panel antiproliferation, SN12C
Method: as §1

[47] = tested on: OVCAR-5 cells; assay: NCI-60 panel antiproliferation, OVCAR-5
Method: as §1

[48] = tested on: SR cells; assay: NCI-60 panel antiproliferation, SR
Method: as §1

[49] = tested on: HT29 cells; assay: NCI-60 panel antiproliferation, HT29
Method: as §1

[50] = tested on: OVCAR-3 cells; assay: NCI-60 panel antiproliferation, OVCAR-3
Method: as §1

[51] = tested on: SK-Mel-2 cells; assay: NCI-60 panel antiproliferation, SK-MEL-2
Method: as §1

[52] = tested on: TK-10 cells; assay: NCI-60 panel antiproliferation, TK-10
Method: as §1

[53] = tested on: EKVX cells; assay: NCI-60 panel antiproliferation, EKVX
Method: as §1

[54] = tested on: A549 cells; assay: NCI-60 panel antiproliferation, A549
Method: as §1

[55] = tested on: NCI-H460 cells; assay: NCI-60 panel antiproliferation, NCI-H460
Method: as §1

[56] = tested on: NCI-ADR/RES cells; assay: NCI-60 panel antiproliferation, NCI-ADR/RES
Method: as §1

[57] = tested on: A498 cells; assay: NCI-60 panel antiproliferation, A498
Method: as §1

[58] = tested on: OVCAR-8 cells; assay: NCI-60 panel antiproliferation, OVCAR-8
Method: as §1

[59] = tested on: MDA-MB-468 cells; assay: NCI-60 panel antiproliferation, MDA-MB-468
Method: as §1

[60] = tested on: PC-3 cells; assay: NCI-60 panel antiproliferation, PC-3
Method: as §1

`C=CC[C@H]1C[C@]2([C@@H](C)Cc3ccc(OC)c(OC)c3)OCOC2=CC1=O` [bifidenone, Bifidenone] gave an IC50 [1] of 170 nM, an IC50 [2] of 420 nM and an IC50 [3] of 250 nM. It also gave an IC50 [4] of 1410 nM, an IC50 [5] of 210 nM and an IC50 [6] of 610 nM. For the same molecule, the IC50 [7] was 850 nM, the IC50 [8] was 320 nM and the IC50 [9] was 140 nM. For the same molecule, the IC50 [10] was 150 nM, the IC50 [11] was 390 nM and the IC50 [12] was 200 nM. It also gave an IC50 [13] of 100 nM, an IC50 [14] of 270 nM and an IC50 [15] of 260 nM. It also gave an IC50 [16] of 570 nM, an IC50 [17] of 290 nM and an IC50 [18] of 90 nM. For the same molecule, the IC50 [19] was 170 nM, the IC50 [20] was 250 nM and the IC50 [21] was 490 nM. The IC50 [22] was 180 nM, the IC50 [23] was 780 nM and the IC50 [24] was 120 nM. For the same molecule, the IC50 [25] was 400 nM, the IC50 [26] was 410 nM and the IC50 [27] was 840 nM. It also gave an IC50 [28] of 460 nM, an IC50 [29] of 260 nM and an IC50 [30] of 320 nM. The IC50 [31] was 130 nM, the IC50 [32] was 250 nM and the IC50 [33] was 320 nM. For the same molecule, the IC50 [34] was 300 nM, the IC50 [35] was 150 nM and the IC50 [36] was 220 nM. It also gave an IC50 [37] of 810 nM, an IC50 [38] of 160 nM and an IC50 [39] of 130 nM. The IC50 [40] was 180 nM, the IC50 [41] was 70 nM and the IC50 [42] was 610 nM. It also gave an IC50 [43] of 230 nM, an IC50 [44] of 270 nM and an IC50 [45] of 240 nM. For the same molecule, the IC50 [46] was 330 nM, the IC50 [47] was 520 nM and the IC50 [48] was 80 nM. It also gave an IC50 [49] of 310 nM, an IC50 [50] of 170 nM and an IC50 [51] of 130 nM. The IC50 [52] was 330 nM, the IC50 [53] was 280 nM and the IC50 [54] was 260 nM. For the same molecule, the IC50 [55] was 320 nM, the IC50 [56] was 170 nM and the IC50 [57] was 460 nM. The IC50 [58] was 470 nM, the IC50 [59] was 300 nM and the IC50 [60] was 190 nM.
